In patent US4313943A, “7-Chloro-2,3-dihydro-5-phenyl-1-propargyl-1H-1,4-benzodiazepine-2-one, and a pharmaceutical composition thereof” (priority 1972, dated 1982):
Entries after “also recorded” stand apart in the source; their conditions may differ.

Legend:
Type in all cases: in vivo
[1] = Reduction in motor activity between 60 and 90 minutes; conditions: for Reduction in Motor Activity Between 60 and 90 Minutes: significance NS (comp. 1), 0.002 (comp. 4)
[2] = Aggressive behavior elicited by foot shock; conditions: oral
From the text: The aggressive behavior of test animals was elicited by a conventional foot shock procedure after administration of Compounds 1 and 4.

[3] = Modifications in the electrocorticogram (ECoG) of unanesthetized animals, R index
Description: Twenty-four hours prior to the test, the surface of a test animal's skull was exposed and stainless steel electrodes were screwed through the lamina externa to make contact with the dura matter in the frontal, parietal and occipital regions, on both sides of the median and transverse sutures. The ECoG was recorded on a REEGA MINI HUIT (Alvar Electronic) encephalograph with a transverse circuit, with bi-frontal, bi-parietal and bi-occipital leads and a longitudinal circuit, with fronto-pariental and parieto-occipital leads on both left and right. One track was used to record respiration, with leads from two steel needles placed under the shin, on either side of the thorax.
Some test animals were kept in restraint cases placed in a relatively soundproof room and some were left free to move in metal cases measuring 40×50×30 cm, which were also kept in a relatively quiet environment.
The activity of the test compounds studied was judged on the one hand by the pattern of spontaneous electrogenesis, especially by the relative degree to which the three basic rhythms of the ECoG in the animals were represented; the theta rhythm (4-8 c/sec.), predominant and characteristic of the state of wakefulness in the posterior regions; bursts of rapid spiked waves (alpha rhythm, 9-15 c/sec.) recorded in the course of diffused wakefulness, and slow waves (delta rhythm, 0.5-3 c/sec.) which are absent in a state of wakefulness except in pathological conditions or in the presence of medicinal substances, a rhythm characteristic of slow-wave sleep. The rapid, low-voltage beta rhythm, not very characteristic of the ECoG in the test animals used and primarily superimposed on the other rhythms, was not analyzed.
Possible modifications in cortical reactivity were also investigated, using two types of stimulation, one comprised an auditory stimulus (whistle blasts) and the other a nociceptive stimulus delivered to the cutaneous nerve endings by pinching the dorsal skin with Kocher's clamps.
To the foregoing qualitative analysis, a quantitative analysis concerning the evolution of spontaneous electrogenesis under the influence of test compounds 1 and 4 was added. The activity of the two compounds was judged by variations in an "R" index, defined as the ratio between the theta waking rhythm, slow waves and bursts of rapid spiked waves. Initially, R was evaluated quantitatively on a scale from 0 to 4 and after this initial estimate, variations in the R index were rated on a scale from 0 to 5 as follows:
1. Maintenance of the value calculated in making the reference tracking (basal value) 0 since variation is nil.
2. Reduction in basal values
(a) reduction of basal value by one-half -1.
(b) observed value between 1/2 and 1/5 of basal value -2.
(c) observed value between 1/5 and 1/10 of basal value -3.
(d) observed value between 1/10 and 1/20 of basal value -4.
(e) observed value lower than 1/20 of basal value, reflecting maximum perturbation of spontaneous ECoG and expressing either a pathological condition or a state of slow-wave sleep, with the absence of theta rhythms and the exclusive presence of slow waves and/or bursts of rapid spiked waves -5.
Once the various values were allocated to each animal, the mean of these values were calculated for each experimental period. From these means, calculations were made of the percentages of variation as compared to a theoretical maximum value of -5 for each experimental period. The percentage for each period was calculated every 30 minutes for 7 hours, with a theoretical total of -10 per hour, then between 7 and 48 hours (theoretical total […]) and between the time of administering the test compound and the 48th hour (theoreticaltotal -90). Variations of 10% were not regarded as significant. All dosages were administered intragastrically through the esophageal tube. […]

[4] = Electrogenesis of various subcortical centers
Description: This study was conducted with test animals weighing between 2.6 and 2.8 kg, following the stereotaxic method of Monnier and Gangloff (Atlas et techniques stereotaxique pour le cerveau du lopin eveille, 1961, Elsevier Pub. Co.), permitting the stimulation of certain subcortical structures as well as a simultaneous detection and recording of their electrical activities, which were compared to that of reference cortical electrodes. In this study, the subcortical centers considered were the caudate nucleus, the dorsal hippocampus, the lateral thalamus, the mesenephalic reticular formation, and the hypothalamic reticular formation. Test compounds 1 and 4 were administered by the intragastric route with an identical dose of 7.5 mg/kg.
Spontaneous activity in the subcortical centers of the unanesthetized animals is characterized by desynchronized activity consisting of high amplitude and relatively slow rhythms (4 to 5 c/sec.), alternating with low amplitude rapid rhythms (12 to 13 c/sec.). Tracings from the hippocampus and caudate nucleus sometimes takes the form of bursts, which is less commonly the case from the thalamus. These may occur at the same time as bursts of rapid spikes arising from the frontal cortex. During periods of arousal, this desynchronized activity is followed by a synchronized theta rhythm (7 to 8 c/sec.) from the hippocampus and caudate nucleus and from the median thalamus, whereas the cortical and reticular electrical activities are transformed into ultra-rapid and low voltage rhythms (30μ volts).

[5] = 7.5 mg/kg intragastric, 2 Hours
[6] = 7.5 mg/kg intragastric, 3 Hours
[7] = 7.5 mg/kg intragastric, 4 Hours
[8] = 7.5 mg/kg intragastric, 5 Hours
[9] = 7.5 mg/kg intragastric, 6 Hours
[10] = 7.5 mg/kg intragastric, 7 Hours
[11] = 7.5 mg/kg intragastric, 48 Hours (7-48 h)
[12] = 7.5 mg/kg intragastric, After 48 Hours (0-48 h total)
[13] = 15.0 mg/kg intragastric, 1 Hour
[14] = 15.0 mg/kg intragastric, 2 Hours
[15] = 15.0 mg/kg intragastric, 3 Hours
[16] = 15.0 mg/kg intragastric, 4 Hours
[17] = 15.0 mg/kg intragastric, 5 Hours
[18] = 15.0 mg/kg intragastric, 6 Hours
[19] = 15.0 mg/kg intragastric, 7 Hours
[20] = 15.0 mg/kg intragastric, 48 Hours (7-48 h)
[21] = 15.0 mg/kg intragastric, After 48 Hours (0-48 h total)
[22] = 30.0 mg/kg intragastric, 1 Hour
[23] = 30.0 mg/kg intragastric, 2 Hours
[24] = 30.0 mg/kg intragastric, 3 Hours
[25] = 30.0 mg/kg intragastric, 4 Hours
[26] = 30.0 mg/kg intragastric, 5 Hours
[27] = 30.0 mg/kg intragastric, 6 Hours
[28] = 30.0 mg/kg intragastric, 7 Hours
[29] = 30.0 mg/kg intragastric, 48 Hours (7-48 h)
[30] = 30.0 mg/kg intragastric, After 48 Hours (0-48 h total)

C#CCN1C(=O)CN=C(c2ccccc2)c2cc(Cl)ccc21 [Compound 1, 7-chloro-2,3-dihydro-5-phenyl-1-propargyl-1H-1,4-benzodiazepin-2-one]
Reduction in Motor Activity Between 60 and 90 Minutes ([1]; 1 mg/kg): +19% | Reduction in Motor Activity Between 60 and 90 Minutes ([1]; 3 mg/kg): -20% | changes in motor activity / voluntary motility ([1]; in vivo): does not produce changes in motor activity | ED50 [2]: 3.3 mg/kg | duration of effect on spontaneous electrogenesis ([3]; 1.5 mg/kg): 2 h | latency of the effects ([3]; 1.5 mg/kg): 21 min | average duration of effect on spontaneous electrogenesis ([3]; 3.75 mg/kg): 4 h | R index variation, Mean ([3]; 7.5 mg/kg intragastric, 1 Hour): -7.5 | R index, % of Variation ([3]; 7.5 mg/kg intragastric, 1 Hour): -50.0% | R index variation, Mean [3, 5]: -6.0 | R index, % of Variation [3, 5]: -60.0% | R index variation, Mean [3, 6]: -4.5 | R index, % of Variation [3, 6]: -45.0% | R index variation, Mean [3, 7]: -4.0 | R index, % of Variation [3, 7]: -40.0% | R index variation, Mean [3, 8]: -3.0 | R index, % of Variation [3, 8]: -30.0% | R index variation, Mean [3, 9]: -2.0 | R index, % of Variation [3, 9]: -20.0% | R index variation, Mean [3, 10]: -1.5 | R index, % of Variation [3, 10]: -15.0% | R index variation, Mean [3, 11]: -0.5 | R index, % of Variation [3, 11]: -3.3% | R index variation, Mean [3, 12]: -29.0 | R index, % of Variation [3, 12]: -32.2% | R index variation, Mean [3, 13]: -11.5 | R index, % of Variation [3, 13]: -76.7% | R index variation, Mean [3, 14]: -7.0 | R index, % of Variation [3, 14]: -70.0% | R index variation, Mean [3, 15]: -5.5 | R index, % of Variation [3, 15]: -55.0% | R index variation, Mean [3, 16]: -5.5 | R index, % of Variation [3, 16]: -55.0% | R index variation, Mean [3, 17]: -4.0 | R index, % of Variation [3, 17]: -40.0% | R index variation, Mean [3, 18]: -2.0 | R index, % of Variation [3, 18]: -20.0% | R index variation, Mean [3, 19]: -2.0 | R index, % of Variation [3, 19]: -20.0% | R index variation, Mean [3, 20]: +1.5 | R index, % of Variation [3, 20]: +10.0% | R index variation, Mean [3, 21]: -36.0 | R index, % of Variation [3, 21]: -40.0% | Cortical reactivity induced by exteroceptive stimulation ([3]; 30 mg/kg): remained unchanged | R index variation, Mean [3, 22]: -8.66 | R index, % of Variation [3, 22]: -57.7% | R index variation, Mean [3, 23]: -6.99 | R index, % of Variation [3, 23]: -69.9% | R index variation, Mean [3, 24]: -6.99 | R index, % of Variation [3, 24]: -69.9% | R index variation, Mean [3, 25]: -6.33 | R index, % of Variation [3, 25]: -63.3% | R index variation, Mean [3, 26]: -4.33 | R index, % of Variation [3, 26]: -43.3% | R index variation, Mean [3, 27]: -1.32 | R index, % of Variation [3, 27]: -13.2% | R index variation, Mean [3, 28]: -0.99 | R index, % of Variation [3, 28]: -9.9% | R index variation, Mean [3, 29]: -1.66 | R index, % of Variation [3, 29]: -11.1% | R index variation, Mean [3, 30]: -37.3 | R index, % of Variation [3, 30]: -41.4% | duration of effects on spontaneous electrogenesis ([3]; 7.5, 15 and 30 mg/kg): at least 5 hours | caudate nucleus bursts of rapid spikes, time of maximum periodicity ([4]; 7.5 mg/kg intragastric): 45 min | caudate nucleus spikes ([4]; 7.5 mg/kg intragastric): definite effect of compound 1 on the caudate nucleus | thalamic rhythms ([4]; 7.5 mg/kg intragastric): greater amplitude and lower frequency | EEG activity of the hippocampus ([4]; in vivo): slow and of high amplitude; also recorded: increase the amplitude of these activities and also reduce their frequency
